Experimental findings from PubChem BioAssay (NCI) are described below.

Molecules are shown by their SMILES.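 Compound exposure: 48 hours, 5 concentrations, 96-well plates. Definition used: TGI = concentration required for complete inhibition of growth.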 Some results are limits rather than exact numbers.

Test systems include NCI-H460 lung; RPMI-8226 leukemia; UO-31 renal; SK-OV-3 ovarian; MDA-MB-231 breast; U251 CNS; HS 578T breast; OVCAR-4 ovarian; NCI-H23 lung; HCC-2998 colon.
What all share (experiment): NCI-60 cell line screen, 48 h

With `C=C[C@@H](C)[C@H](NS(=O)(=O)c1ccc(C)cc1)C(=O)OCC`, the TGI in the assay on NCI-H460 lung is more than 100 µM; in the assay with RPMI-8226 leukemia it was 35.5 µM; in the assay with UO-31 renal, 96.1 µM; in the assay with SK-OV-3 ovarian it was more than 100 µM; with MDA-MB-231 breast, more than 100 µM; with U251 CNS it was 97.3 µM. In addition, the TGI in the assay on HS 578T breast was 56.4 µM; in the assay on OVCAR-4 ovarian, more than 100 µM; with NCI-H23 lung, more than 100 µM.
Regarding `COc1c(O)c(C=O)c2c(O)c(-c3c(C)cc4c(C(C)C)c(OC)c(O)c(C=O)c4c3O)c(C)cc2c1C(C)C`, the TGI in the assay on HCC-2998 colon turned out to be 5.34 µM; in the assay on NCI-H460 lung it was 16.1 µM; in the assay on RPMI-8226 leukemia it was 22.4 µM; in the assay with UO-31 renal, 11.1 µM; in the assay with SK-OV-3 ovarian it was 14.2 µM; with U251 CNS, 12.2 µM. The TGI is 14 µM with OVCAR-4 ovarian and 13.2 µM in the assay on NCI-H23 lung.
With `CC(=C(c1ccccc1)c1ccccc1)N1C(=O)CC(=O)N1C`, the TGI was more than 100 µM in the assay with HCC-2998 colon; more than 100 µM in the assay with NCI-H460 lung; more than 100 µM with RPMI-8226 leukemia; 31.5 µM in the assay on UO-31 renal; more than 100 µM in the assay on SK-OV-3 ovarian; more than 100 µM with U251 CNS. For the same compound, the figures for the TGI in the assay on HS 578T breast, with OVCAR-4 ovarian and in the assay with NCI-H23 lung were 55.4 µM, 79.5 µM and more than 100 µM, respectively.
As to `Cc1cccc(Nc2nn3c(=O)c4c5c(sc4nc3s2)CCCC5)c1`, the TGI in the assay with NCI-H460 lung, in the assay with UO-31 renal, in the assay on SK-OV-3 ovarian, with MDA-MB-231 breast, in the assay with U251 CNS and with HS 578T breast was more than 100 µM in each case. For the same compound, the TGI in the assay with OVCAR-4 ovarian was more than 100 µM; in the assay with NCI-H23 lung it was 57.1 µM.
On to `OCCO/N=C1\C(c2c(O)[nH]c3ccccc23)=Nc2ccccc21`, for which the TGI with HCC-2998 colon, in the assay on NCI-H460 lung, in the assay on RPMI-8226 leukemia, with UO-31 renal, with SK-OV-3 ovarian and in the assay on U251 CNS was more than 100 µM each time. The TGI with HS 578T breast, with OVCAR-4 ovarian and with NCI-H23 lung was more than 100 µM throughout.
For `CC(=O)OCC1OC(SC2=N/C(=C\c3ccc(Br)s3)C(=O)N2CN2CCOCC2)C(OC(C)=O)C(OC(C)=O)C1OC(C)=O` (stereo not drawn), the TGI with HCC-2998 colon is 38.7 µM; in the assay on NCI-H460 lung it was 38.6 µM; in the assay on RPMI-8226 leukemia, 27 µM; in the assay with UO-31 renal, 29.4 µM; in the assay on MDA-MB-231 breast, more than 100 µM; with U251 CNS it was 32.2 µM. In addition, the TGI in the assay on HS 578T breast is more than 100 µM; in the assay on OVCAR-4 ovarian, more than 100 µM; in the assay on NCI-H23 lung, 27.2 µM.
Consider `C=C/C(C)=C\CC1[C@](C)(O)CC[C@H]2C(C)(C)C(=O)CC[C@]12C` (stereo partly drawn), for which the TGI in the assay with NCI-H460 lung is more than 100 µM; in the assay on RPMI-8226 leukemia, more than 100 µM; in the assay on UO-31 renal it was 57 µM; in the assay with MDA-MB-231 breast it was more than 100 µM; in the assay on U251 CNS it was more than 100 µM; in the assay on HS 578T breast, more than 100 µM. Also, the TGI in the assay with OVCAR-4 ovarian and in the assay with NCI-H23 lung was more than 100 µM throughout.
Turning to `Nc1ccc(S(=O)(=O)c2ccc(NCN3C(=O)NC(=O)C(=O)C3=O)cc2)cc1`, the TGI in the assay with HCC-2998 colon, in the assay with NCI-H460 lung, with UO-31 renal, with MDA-MB-231 breast, in the assay with U251 CNS and in the assay with HS 578T breast was more than 100 µM in each case. In addition, the TGI with OVCAR-4 ovarian and in the assay with NCI-H23 lung was more than 100 µM throughout.
Take `C[n+]1cccc2c(=O)c3ccccc3oc21`: the TGI with HCC-2998 colon, with NCI-H460 lung, with UO-31 renal, in the assay with SK-OV-3 ovarian, in the assay with MDA-MB-231 breast and in the assay on U251 CNS was more than 100 µM in each case. For the same compound, the TGI in the assay with HS 578T breast, with OVCAR-4 ovarian and in the assay on NCI-H23 lung was more than 100 µM throughout.
As for `O=[N+]([O-])c1ccc2sc(C=Nc3cnccn3)cc2c1`, the TGI is 40.7 µM in the assay with HCC-2998 colon; more than 100 µM in the assay on NCI-H460 lung; 52.9 µM in the assay on RPMI-8226 leukemia; more than 100 µM in the assay with UO-31 renal; more than 100 µM with SK-OV-3 ovarian; more than 100 µM in the assay on MDA-MB-231 breast. In addition, the TGI in the assay with U251 CNS is more than 100 µM; in the assay on HS 578T breast, 49.5 µM; in the assay with NCI-H23 lung, more than 100 µM.
For `CSCCC(N)C(=O)NCCNc1ccc(NCCNC(=O)C(N)CCSC)c2c1C(=O)c1ccccc1C2=O` (stereo not drawn), the TGI with HCC-2998 colon is 2.33 µM; in the assay with NCI-H460 lung, 9.33 µM; with UO-31 renal, 4.39 µM; in the assay with SK-OV-3 ovarian it was 10.3 µM; in the assay with MDA-MB-231 breast, 2.81 µM; in the assay with U251 CNS, 2.44 µM. The TGI in the assay with HS 578T breast is 6.85 µM; in the assay with OVCAR-4 ovarian, 3.71 µM; in the assay with NCI-H23 lung it was 2.32 µM.
For `NCCCN(CCCN(C(=O)Nc1ccccc1)c1ccccc1)C(=O)Nc1ccccc1`, the TGI in the assay with HCC-2998 colon was 62.3 µM; in the assay on NCI-H460 lung, 94.8 µM; in the assay with RPMI-8226 leukemia, 73 µM; in the assay with UO-31 renal, 65.8 µM; in the assay on SK-OV-3 ovarian, more than 100 µM; in the assay with MDA-MB-231 breast, more than 100 µM. Also, the TGI with U251 CNS, in the assay with HS 578T breast and in the assay on NCI-H23 lung was more than 100 µM in each case.
As to `O=c1cc(N2CCCC2)[nH]c(=O)n1Cc1ccccc1`, the TGI in the assay with HCC-2998 colon, in the assay on NCI-H460 lung, in the assay on RPMI-8226 leukemia, in the assay on MDA-MB-231 breast, in the assay on U251 CNS and in the assay on OVCAR-4 ovarian was more than 100 µM each time. This compound gave a TGI with NCI-H23 lung of more than 100 µM.
Take `Cc1csc(NC23CC4CC(CC(C4)C2)C3)[n+]1C(P(=O)([O-])O)P(=O)(O)O` (stereo not drawn): the TGI with HCC-2998 colon, in the assay on NCI-H460 lung, in the assay on RPMI-8226 leukemia, with UO-31 renal, in the assay on SK-OV-3 ovarian and with MDA-MB-231 breast was more than 100 µM in each case. Further, the TGI with U251 CNS, with HS 578T breast and in the assay on NCI-H23 lung was more than 100 µM in each case.
On to `C[C@H](NC(=O)C(Cc1ccccc1)(Cc1ccc(O)cn1)NC(=O)c1ccccc1)c1ccccc1` (stereo partly drawn), for which the TGI was 30.8 µM in the assay on HCC-2998 colon; more than 100 µM with RPMI-8226 leukemia; 29.1 µM in the assay on UO-31 renal; 29.4 µM in the assay on MDA-MB-231 breast; 28.6 µM with U251 CNS; 41.1 µM with HS 578T breast. Besides, the TGI in the assay on OVCAR-4 ovarian came to 50.4 µM; in the assay on NCI-H23 lung, 50.5 µM.
